The target in data set [1] is T1, human plasma Kallikrein (Homo sapiens, UniProt P03952).
T1 construct: purchased Stratech, UK
Kind of data set: Functional enzyme inhibition assay with fluorogenic substrate Z-PheArg-AMC, human plasma Kallikrein. As to conditions: for F (Kivar/KiWT): ratio of Ki to wild type. Format: biochemical. Put shortly:
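Human plasma kallikrein at 26.5 pM was preincubated 15 minutes with test peptide in Tris/NaCl/MgCl2/CaCl2/BSA buffer pH7.4 at 25° C, then Z-PheArg-AMC added to 100 μM final in 4% DMSO.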

Data set [2] can be described thus: Quantitative plasma stability Method #3 (LC-MS, 95% plasma), rat plasma. It is filed as in vitro ADME. Particulars: for half-life at 5 uM: rat, plasma. As for the experimental part: (§1) To obtain plasma stability quantitatively, peptide stock solutions (1 mM in DMSO) were shipped to Biofocus, UK, who performed the analysis. Peptides were diluted to 100 uM with water, and diluted 1:20 in plasma (5 uM final concentration, with the plasma at 95%), sampled as appropriate, precipitated as above, and quantified using a Waters Xevo TQ-MS.

Data set [3] deals with T1, human plasma Kallikrein. Particulars: Table 1, as disclosed in PCT/EP2012/069898; cited from earlier work.
Data set [4] deals with T2, rat plasma Kallikrein (Rattus norvegicus, UniProt P14272).
T2 construct: polyhistidine tag (N, cleaved yes); proTEV cleavage site (pro-peptide linker) (N, cleaved yes); made in house; host or cells: HEK-293 (suspension-adapted)

For data set [5] the following is noted: Table 1; Method #3; cited from earlier work.
Data set [6] is described as follows: Plasma stability profiling Method #1 (MALDI-TOF, 35% plasma), rat plasma. Format: in vitro ADME. Particulars: for stability in rat plasma compared to wildtype peptide: MALDI TOF assay (Methods #1 and #2), t=0, 21 and 46 hrs. In outline:
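Qualitative test: 200 µM peptide incubated at 37 °C in 35% rat or human citrated plasma supplemented with PBS, sampled at 0, 3, 24 h then daily up to 10 days. Parent mass tracked by MALDI-TOF; value is time until parent peptide no longer detectable.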

Data set [7] in a line: Plasma stability profiling Method #1 (MALDI-TOF, 35% plasma), human plasma. Format: in vitro ADME. Particulars: MALDI TOF assay (Methods #1 and #2), t=0, 21 and 46 hrs. As for the experimental part:
A rapid plasma stability profiling assay was developed that employed mass spectrometric detection (MALDI-TOF, Voyager DE, Applied Biosystems) of the parent mass, until the time when the parent peptide mass was no longer observable. Specifically, 200 uM of peptide was incubated in the presence of 35% rat or human plasma (Sera labs, using citrate as anticoagulant) at 37 deg C., which was supplemented with 1×PBS (derived from a 10×PBS Stock, Sigma). […] Samples were frozen at −80 deg C. until the time of analysis. For mass spectrometric analysis that determines the approximate detection window of the peptide, the acetonitrile:H2O-diluted sample of a given time point was spotted directly (0.7 uL) onto the MALDI plate. Matrix (alpha-cyanocinnamic acid, Sigma, prepared as a saturated solution in 1:1 acetonitrile:water containing 0.1% trifluoroacetic acid) was layered over the sample (1 uL). At a similar laser intensity setting on the MALDI TOF, the time could then be determined until parent peptide was no longer detectable. It should be noted that this is a qualitative assay serves to detect relative changes in plasma stability.

Data set [8] can be described thus: Intravenous pharmacokinetics in Sprague Dawley rats. Particulars: rat; for half-life: iv, 5.2 mg/kg. Format: in vivo. As for the experimental part:
Peptides were applied as intravenous boli in PBS-buffered solution at 1.02 mg/mL (containing 2.9% DMSO) at 5.2 mg/kg to Sprague Dawley rats, and serial blood samples were taken from each animal via temporary indwelling tall vein cannulae at 5, 10, 20, 30, 60, 120, and 240 minutes post dose, and transferred to EDTA tubes for plasma generation. Data was acquired for peptide “all D Ac-06-34-18” from 3 rats, for “Ac-(06-34-18) Phe2 Aze3 Tyr4 HArg5 Ala(ψCH2NH)6” from two rats, and for “Ac-(06-34-18) Phe2 Aze3 Tyr4 HArg5 D-Asp9” from two rats.
Plasma samples were then treated with 3 volumes of a 1:1 mixture of acetonitrile and methanol, precipitated proteins were removed by centrifugation, and the supernatant was analysed by UPLC-MS/MS.
Quantification for peptide content in the samples was by reference to a calibration line prepared in control rat plasma. Pharmacokinetic parameters were determined by non-compartmental analysis using the software package PK Solutions 2.0 from Summit Research Services.

Data set [9] addresses human PK (hPK) (Homo sapiens, UniProt P03952). As to conditions: cited from earlier work.
Data set [10] addresses rat PK (Rattus norvegicus, UniProt P14272). Particulars: highest concentration tested (10 μM); cited from earlier work.
The target in data set [11] is factor XIa (hfXIa) (Homo sapiens, UniProt P03951). As to conditions: highest concentration tested (10 μM); cited from earlier work.
The target of data set [12] is thrombin (Homo sapiens, UniProt P00734). As to conditions: highest concentration tested (10 μM); cited from earlier work.
For data set [13], the target named is T2, rat plasma Kallikrein. Kind of data set: Functional enzyme inhibition assay with fluorogenic substrate Z-PheArg-AMC, rat plasma Kallikrein. Format: biochemical. As to conditions: Table 26b, loop 1 and loop 2 modified derivatives. As for the experimental part:
Functional enzyme assays were conducted in 10 mM Tris HCl, 150 mM NaCl, 10 mM MgCl2, 1 mM CaCl2) and 1 mg/mL BSA (all Sigma UK) pH7.4 at 25° C. in solid black 96 well plates. Briefly 26.5 pM human plasma Kallikrein (purchased from Stratech, UK) or 500 pM rat plasma Kallikrein (expressed and purified in house) were incubated in the absence or presence of increasing concentrations of test peptide for 15 minutes before addition of the fluorogenic substrate Z-PheArg-AMC (Enzo Lifesciences UK) to a final assay concentration of 100 μM in 4% DMSO. Release of AMC was measured using a Pherastar FS (BMG Labtech), excitation 360 nm, emission 460 nm. The rate of the linear phase of the reaction, typically 5 to 45 minutes, was calculated in MARS data analysis software (BMG labtech). The rate was then used to calculate the IC50 and Ki in Prism (GraphPad). A four parameter inhibition non-linear regression equation was used to calculate the IC50.
Peptides were dissolved as the TFA-salts in their powder form, and stock solutions were usually prepared in water. All solutions were centrifuged and filtered ([…] syringe filters) prior absorption measurement at 280 nm. Extinction coefficients were calculated based on the Trp/Tyr content of the peptide, and that of TMB (the TMB core, when contained in a peptide, has an ε of ˜300 M^−1cm^−1). For peptides containing non-natural amino acids with suspected chromophoric properties (i.e. NorHar, 4PhenylPro, 3Pal, 4Pal, Tic, 4GuanPhe, 4,4-BPAI, 3,3-DPA, 1NAI, 2NAI, 4BenzylPro, Ind) concentrations were determined by weighing the powder and dissolving the peptide in a defined quantity of water.

The nature of data set [14]: Plasma stability / fragment profiling Method #2 (MALDI-TOF, 95% plasma), human plasma. It is filed as in vitro ADME. Put shortly: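 Peptide at 50 uM final in 95% human plasma without PBS; timed samples frozen at −80 °C, then extracted with 1:1 acetonitrile:methanol. Supernatant mixed with 30 mM ammonium bicarbonate and analysed by MALDI-TOF; qualitative fragment profiling of relative stability over time.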

Data set [15] in a line: Quantitative plasma stability Method #3 (LC-MS, 95% plasma), human plasma. Format: in vitro ADME. As to conditions: Table 2, ex vivo human plasma, read-out: Human Plasma Stability (t½ in hrs) (converted). As for the experimental part:
as §1

For data set [16] the following is noted: Table 1; Method #1; cited from earlier work.
[17] abbreviates: Sprague Dawley, plasma, intravenous bolus 5.2 mg/kg, read-out: elimination half-life.
[18] abbreviates: Sprague Dawley, plasma, intravenous, read-out: t1/2 elimination.

Like-named read-outs stand apart in the source and are kept apart here. Numbered stars: 1 amine (or outer) side, 2 acyl side, 3 side chain; on linkers, the order of the positions; unused ones are H or OH. Bridge positions count the residues as written; N and C are the ends. Square brackets hold non-standard residues; d marks the D form. Peptide text beside a SMILES is read from it. TBMB = c1c(C[*:1])cc(C[*:3])cc1C[*:2]; hArg = N=C(N)NCCCC[C@H](N)C(=O)O; Aze = O=C(O)[C@@H]1CCN1

T1 sequence (P03952 20-638): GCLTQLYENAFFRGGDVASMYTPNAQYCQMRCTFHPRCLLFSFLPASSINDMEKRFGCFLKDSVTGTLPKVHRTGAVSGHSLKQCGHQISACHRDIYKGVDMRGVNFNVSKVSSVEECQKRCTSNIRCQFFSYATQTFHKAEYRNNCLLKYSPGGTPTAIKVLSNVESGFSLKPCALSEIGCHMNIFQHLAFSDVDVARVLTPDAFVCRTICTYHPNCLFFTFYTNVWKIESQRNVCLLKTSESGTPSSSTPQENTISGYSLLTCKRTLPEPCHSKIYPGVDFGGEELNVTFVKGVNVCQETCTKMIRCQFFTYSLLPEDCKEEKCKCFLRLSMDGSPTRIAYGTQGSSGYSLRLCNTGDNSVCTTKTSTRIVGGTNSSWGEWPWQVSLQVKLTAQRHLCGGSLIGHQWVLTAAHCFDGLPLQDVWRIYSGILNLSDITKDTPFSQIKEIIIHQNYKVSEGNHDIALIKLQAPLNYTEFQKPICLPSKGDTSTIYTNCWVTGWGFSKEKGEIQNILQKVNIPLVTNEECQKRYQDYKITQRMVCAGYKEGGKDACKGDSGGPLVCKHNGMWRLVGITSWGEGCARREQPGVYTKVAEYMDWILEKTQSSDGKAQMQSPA
T2 sequence (P14272 391-638 limits assumed): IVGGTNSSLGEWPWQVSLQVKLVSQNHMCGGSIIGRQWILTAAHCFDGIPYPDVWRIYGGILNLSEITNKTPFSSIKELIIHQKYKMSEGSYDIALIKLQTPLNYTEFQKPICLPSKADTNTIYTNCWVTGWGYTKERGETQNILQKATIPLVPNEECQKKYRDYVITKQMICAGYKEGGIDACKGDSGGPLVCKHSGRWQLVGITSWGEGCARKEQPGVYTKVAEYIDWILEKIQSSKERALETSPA
human PK (hPK), sequence (P03952 20-638): as the sequence (P03952 20-638) above
factor XIa (hfXIa), sequence (P03951 388-625 limits assumed): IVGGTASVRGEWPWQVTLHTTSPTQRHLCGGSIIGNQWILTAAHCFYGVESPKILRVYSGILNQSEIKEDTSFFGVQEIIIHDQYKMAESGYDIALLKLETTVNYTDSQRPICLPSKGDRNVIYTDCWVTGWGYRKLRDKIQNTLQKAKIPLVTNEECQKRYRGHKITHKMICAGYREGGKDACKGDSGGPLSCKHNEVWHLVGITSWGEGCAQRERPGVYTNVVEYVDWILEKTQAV
factor XIa (hfXIa), sequence (P03951 19-387 partner limits assumed): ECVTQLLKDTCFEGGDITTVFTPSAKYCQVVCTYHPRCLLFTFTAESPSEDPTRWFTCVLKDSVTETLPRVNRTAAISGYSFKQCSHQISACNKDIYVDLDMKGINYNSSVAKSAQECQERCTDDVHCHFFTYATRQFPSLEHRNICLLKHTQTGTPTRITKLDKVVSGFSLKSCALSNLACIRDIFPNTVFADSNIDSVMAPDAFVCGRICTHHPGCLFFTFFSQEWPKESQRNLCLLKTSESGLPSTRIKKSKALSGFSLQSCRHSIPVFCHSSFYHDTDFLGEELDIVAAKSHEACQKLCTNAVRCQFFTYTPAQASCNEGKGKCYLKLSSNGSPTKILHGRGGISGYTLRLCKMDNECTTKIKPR
rat PK, sequence (P14272 20-638): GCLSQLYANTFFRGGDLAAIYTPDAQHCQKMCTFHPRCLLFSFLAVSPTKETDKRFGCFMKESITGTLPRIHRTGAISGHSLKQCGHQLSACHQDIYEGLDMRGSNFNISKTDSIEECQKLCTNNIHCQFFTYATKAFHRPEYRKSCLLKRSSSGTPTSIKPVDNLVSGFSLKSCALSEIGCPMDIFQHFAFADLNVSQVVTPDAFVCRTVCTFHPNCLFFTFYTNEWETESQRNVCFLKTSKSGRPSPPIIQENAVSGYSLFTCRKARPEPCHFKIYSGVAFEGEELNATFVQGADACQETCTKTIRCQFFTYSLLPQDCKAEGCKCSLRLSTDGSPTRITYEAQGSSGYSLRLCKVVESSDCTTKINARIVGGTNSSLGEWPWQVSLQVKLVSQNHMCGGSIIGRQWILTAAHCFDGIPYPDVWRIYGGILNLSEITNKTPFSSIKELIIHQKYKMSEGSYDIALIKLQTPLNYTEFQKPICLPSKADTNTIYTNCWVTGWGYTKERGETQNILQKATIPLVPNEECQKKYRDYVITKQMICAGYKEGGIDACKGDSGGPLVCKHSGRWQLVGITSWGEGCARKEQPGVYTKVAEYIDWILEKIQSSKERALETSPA

Take `CC(=O)N[C@H]1CSCc2cc3cc(c2)CSC[C@H](NC(=O)[C@H](Cc2ccc(NC(=N)N)cc2)NC(=O)[C@H](C)NC(=O)[C@@H]2CCCN2C(=O)[C@H](Cc2c[nH]c4ccccc24)NC(=O)[C@H](CO)NC1=O)C(=O)N[C@@H](CC(C)C)C(=O)N[C@@H](Cc1c[nH]cn1)C(=O)N[C@@H](CCC(N)=O)C(=O)N[C@@H](CC(=O)O)C(=O)N[C@@H](CC(C)C)C(=O)N[C@H](C(N)=O)CSC3` [Ac-(06-34-18) 4GuanPhe5]: the “reduction in potency/affinity compared to wildtype” value in data set [1] is given as 2 fold. The Ki in [1] (Table 15, read-out: Ki (nM) (human kallikrein)) was 0.34 nM; in data set [3] it was 0.34 nM; in data set [4] (Table 1; read-out: Ki (nM) (rat kallikrein); cited from earlier work) it was 3 nM. In addition, the half-life at 5 uM in data set [2] (Table 15, method #3, read-out: t1/2 (hrs) in rat plasma (converted)) is 2.8 h. Besides, in data set [5], the “t1/2 (hrs) in rat plasma” value was 2.8 h.

Usually clearance stands for the volume of plasma or blood freed of the substance per unit of time. Low values mean a low capacity for elimination, high ones a high capacity for elimination. For the compound `CC(=O)N[C@H]1CSCc2cc3cc(c2)CSC[C@H](NC(=O)[C@H](CCCCNC(=N)N)NC(=O)[C@H](Cc2ccc(O)cc2)NC(=O)[C@@H]2CCN2C(=O)[C@H](Cc2ccccc2)NC(=O)[C@H](CO)NC1=O)C(=O)N[C@@H](C)CN[C@@H](Cc1c[nH]cn1)C(=O)N[C@@H](CCC(N)=O)C(=O)N[C@@H](CC(=O)O)C(=O)N[C@@H](CC(C)C)C(=O)N[C@H](C(N)=O)CSC3`, the “stability in rat plasma compared to wildtype peptide” value in [6] is given as “remarkably enhanced stability”. For the same compound, the “stability in human plasma compared to wildtype peptide” value in [7] was “remarkably enhanced stability”. Also, in [8] (Sprague Dawley, plasma, intravenous bolus 5.2 mg/kg), the clearance amounted to 5.8 mL/min/kg. The half-life in data set [8] (setting [17]) amounted to 48 min. Further, in data set [8] (setting [18]), the half-life turned out to be 48 min. For the same compound, in data set [8] (intravenous), the “Clearance based on AUC0-∞” value worked out at 6.2 mL/min/kg and the “Volume of distribution based on AUC0-∞” value is listed as 0.44 L/kg.

Usually IC50 stands for the concentration that gives 50% inhibition. Consider H-ACSDRFRNCPADEALCG-NH2 [PK15], for which the Ki in [9] (Heinis et al. 2009, read-out: Kl human PK (hPK)) was 3 nM. In data set [9] (background, read-out: IC50 binding constant for human Kallikrein), the concentration for half-maximal inhibition (IC50) is 1.7 nM. In addition, in data set [10], the “inhibition of rat PK” value is listed as “did not inhibit”. Also, in [11], the “inhibition of factor XIa (hfXIa)” value is given as “did not inhibit”. Besides, the inhibition of thrombin result in data set [12] is recorded as “did not inhibit”.

As to `CC(=O)N[C@H]1CSCc2cc3cc(c2)CSC[C@H](NC(=O)[C@H](CCCCNC(=N)N)NC(=O)[C@H](Cc2ccc(O)cc2)NC(=O)[C@@H]2CCN2C(=O)[C@H](Cc2ccccc2)NC(=O)[C@H](CO)NC1=O)C(=O)N[C@@H](CC(C)C)C(=O)N[C@@H](Cc1c[nH]cn1)C(=O)N[C@@H](CCC(N)=O)C(=O)N[C@H](CC(=O)O)C(=O)N[C@@H](CC(C)C)C(=O)N[C@H](C(N)=O)CSC3` (Ac-CSF[Aze]Y[hArg]CLHQ[dD]LC-NH2; linker 1-7-13 via TBMB), the Ki in [1] (Table 26b, loop 1 and loop 2 modified derivatives, read-out: Ki (nM) (human kallikrein)) came to 0.9 nM; in [13], 14 nM. Further, in data set [6], the “stability in rat plasma compared to wildtype peptide” value is on record as “remarkably enhanced stability”. The “stability in human plasma compared to wildtype peptide” value in [7] is recorded as “remarkably enhanced stability”. Also, the half-life was roughly 27 min in [8] (setting [17]) and 27 min in data set [8] (setting [18]).

Regarding `CC(=O)N[C@H]1CSCc2cc3cc(c2)CSC[C@H](NC(=O)[C@H](CCCNC(=N)N)NC(=O)[C@H](Cc2ccc(O)cc2)NC(=O)[C@@H]2CCCN2C(=O)[C@H](Cc2ccccc2)NC(=O)[C@H](CO)NC1=O)C(=O)N[C@@H](CC(C)C)C(=O)N[C@@H](Cc1c[nH]cn1)C(=O)N[C@@H](CCC(N)=O)C(=O)N[C@@H](CC(=O)O)C(=O)N[C@@H](CC(C)C)C(=O)N[C@H](C(N)=O)CSC3` [Ac-(06-34-18) Phe2 Tyr4] (Ac-CSFPYRCLHQDLC-NH2; linker 1-7-13 via TBMB), the Ki in [1] (Ki (nM) (human kallikrein), Table 26a, loop2 stability enhanced candidates) was 0.9 nM; in [1] (Ki (nM) human Kai, Table 2), 0.42 nM; in [4] (read-out: Ki (nM) (rat kallikrein); Table 1; cited from earlier work), 7.6 nM. Besides, the “F (Kivar/KiWT)” value in data set [1] (Table 3a) and in data set [1] (Table 24b) was 1 throughout. Besides, the “Observable in rat plasma, for days” value is recorded as 2 days in data set [6] (Table 21, method #1); 2 days in data set [6] (Table 23, comparative stabilities estimated according to method #1); 2 days in [16]. In addition, the “Fragments (human plasma)” value in data set [14] (Table 3a, peptide fragments observed after incubation in human plasma) is “-LHQ”. The “degradation / fragments in human plasma (in words)” value in data set [14] (running text and figure legends) is “fragments with His7-Gln8, Leu6, and Leu6-His7-Gln8 removed”. Further, the “Rat Plasma Stability (t½ in hrs)” value in [2] (Table 2, ex vivo rat plasma, Method #3) turned out to be 54 min. In addition, the “t1/2 (hrs) in rat plasma” value in data set [2] (Table 23, method #3) was 0.9 h; in [5], 0.9 h. The half-life at 5 uM was 0.9 h in [2] (method #3, read-out: half-life in rat plasma (t1/2) (converted)) and 84 min in [15].

Source of the values: US10118947B2, “Modulation of structured polypeptide specificity” (BICYCLE THERAPEUTICS LIMITED, priority 2013, dated 2018).
